Test results reported in patent US8450308B2 (Vitae Pharmaceuticals, Inc., priority 2008, dated 2013).
Where two headings read alike, the source gives them in different places.

Target: T1, truncated human beta-secretase (residues 1-458, His6-tagged at the C-terminus) (Homo sapiens, UniProt P56817)
T1 construct: truncated human beta-secretase (residues 1-458, His6-tagged at the C-terminus); His6 (C); made in house; host or cells: insect cells D. melanogaster S2 (baculovirus expression system (so in the source))
T1 sequence (P56817 22-458): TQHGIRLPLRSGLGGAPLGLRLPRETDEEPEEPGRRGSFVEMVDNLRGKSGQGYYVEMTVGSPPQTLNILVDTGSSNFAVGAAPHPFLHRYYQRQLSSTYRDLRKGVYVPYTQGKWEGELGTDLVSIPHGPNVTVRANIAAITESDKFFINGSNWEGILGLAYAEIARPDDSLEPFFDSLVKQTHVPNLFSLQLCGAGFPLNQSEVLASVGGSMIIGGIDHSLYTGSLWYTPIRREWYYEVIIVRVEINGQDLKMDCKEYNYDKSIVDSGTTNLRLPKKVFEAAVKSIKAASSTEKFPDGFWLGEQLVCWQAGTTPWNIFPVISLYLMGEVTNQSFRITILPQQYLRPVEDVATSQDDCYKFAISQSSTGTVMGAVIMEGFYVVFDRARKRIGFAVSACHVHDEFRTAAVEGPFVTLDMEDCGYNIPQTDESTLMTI
Assay: BACE fluorescence quench assay
Assay type: biochemical

[1] = in vitro enzyme activity, BACE fluorescence assay, pH 4.5, read-out: IC50

| IC50 [1] | SMILES | IC50 |
| --- | --- | --- |
| 10000 to 50000 nM | CN1OC2(CC(c3ccc(OC(F)(F)F)cc3)Oc3ccc(-c4cccc(C#N)c4)cc32)N=C1N (stereo not shown) [Compound 107, 3-(3′-amino-2′-methyl-2-(4-(trifluoromethoxy)phenyl)-2′H-spiro[chroman-4,5′-[1,2,4]oxadiazole]-6-yl)benzonitrile] | – |
| 1000 to 5000 nM | CC(C)C1CCC2(C1)CC1(N=C(N)N(C)O1)c1cc(-c3cccc(C#N)c3)ccc1O2 (stereo not shown) [Compound 121] | – |
| 100 to 500 nM | CN1O[C@@]2(C[C@H]([C@@H]3CCCOC3)Oc3ccc(-c4cc(F)cc(F)c4)cc32)N=C1N (racemic) [Compound 326, (2S,4S/2R,4R)-6-(3,5-difluorophenyl)-2′-methyl-2-((S/R)-tetrahydro-2H-pyran-3-yl)-2′H-spiro[chroman-4,5′-[1,2,4]oxadiazol]-3′-amine] | – |
| 10000 to 50000 nM | COCCCOc1cccc(-c2ccc3c(c2)C2(CC4(CCCOC4)O3)N=C(N)N(C)O2)c1 (stereo not shown) [Compound 128] | – |
| 100 to 500 nM | CCOc1ccc(Cl)cc1-c1ccc2c(c1)[C@]1(C[C@]3(CCCOC3)O2)N=C(N)N(C)C1=O [Compound 342] | – |
| 1000 to 5000 nM | CN1C(=O)C2(CC(C)(c3ccccc3)Oc3ccc(-c4cccc(C#N)c4)cc32)N=C1N (stereo not shown) [Compound 32, 3-(2′-amino-1′,2-dimethyl-5′-oxo-2-phenyl-1′,5′-dihydrospiro[chroman-4,4′-imidazole]-6-yl)benzonitrile] | – |
| – | CN1C(=O)C2(CC(c3ccccc3)Oc3ccc(-c4cccnc4)cc32)N=C1N (stereo not shown) [Compound 15, 2′-amino-1′-methyl-2-phenyl-6-(pyridin-3-yl)spiro[chroman-4,4′-imidazol]-5′(1′H)-one] | 500 to 1000 nM |
| – | COCc1ccc(-c2ccc3c(c2)C2(CC(c4ccccc4)O3)N=C(N)N(C)C2=O)cc1 (stereo not shown) [Compound 54, 2′-amino-6-(4-(methoxymethyl)phenyl)-1′-methyl-2-phenylspiro[chroman-4,4′-imidazol]-5′(1′H)-one] | 10000 to 50000 nM |
| 1 to 100 nM | CN1OC2(CC(C3CCCOC3)Oc3ccc(-c4cccc(C#N)c4)cc32)N=C1N (stereo not shown) [Compound 85, 3-(3′-amino-2′-methyl-2-(tetrahydro-2H-pyran-3-yl)-2′H-spiro[chroman-4,5′-[1,2,4]oxadiazole]-6-yl)benzonitrile] | – |
| – | CN1C(=O)C2(CC(c3ccccc3)Oc3ccc(-c4ccc(F)c(C#N)c4)cc32)N=C1N (stereo not shown) [Compound 4, 5-(2′-amino-1′-methyl-5′-oxo-2-phenyl-1′,5′-dihydrospiro[chroman-4,4′-imidazole]-6-yl)-2-fluorobenzonitrile] | 100 to 500 nM |
| 500 to 1000 nM | CN1C(=O)[C@@]2(C[C@@]3(CCCOC3)Oc3ccc(-c4cccc(OC(F)(F)F)c4)cc32)N=C1N [Compound 357] | – |
| 500 to 1000 nM | CN1C(=O)[C@@]2(C[C@@]3(CCCOC3)Oc3ccc(-c4cc(F)cc(C#N)c4)cc32)N=C1N [Compound 356] | – |
| 5000 to 10000 nM | CC(C)=CC(CCO)C1CC2(N=C(N)N(C)O2)c2cc(-c3cc(F)ccc3F)ccc2O1 (stereo not shown) [Compound 434] | – |
| 500 to 1000 nM | CN1C(=O)C2(CC3(CCCOC3)Oc3ccc(-c4cc(F)cc(F)c4F)cc32)N=C1N (stereo not shown) [Compound 346] | – |
| 500 to 1000 nM | CN1C(=O)C2(CC(C3CCOC(C)(C)C3)Oc3ccc(-c4cc(F)cc(F)c4)cc32)N=C1N (stereo not shown) [Compound 372] | – |
| – | CN1C(=O)C2(CC(c3ccccc3)Oc3ccc(-c4ccccc4C#N)cc32)N=C1N (stereo not shown) [Compound 35, 2-(2′-amino-1′-methyl-5′-oxo-2-phenyl-1′,5′-dihydrospiro[chroman-4,4′-imidazole]-6-yl)benzonitrile] | 1000 to 5000 nM |
| 100 to 500 nM | CN1OC2(CC3(Cc4ccccc4C3)Oc3ccc(-c4cccc(C#N)c4)cc32)N=C1N (stereo not shown) [Compound 315] | – |
| – | CN1C(=O)C2(CC(c3ccccc3)Oc3ccc(-c4cccc(CC#N)c4)cc32)N=C1N (stereo not shown) [Compound 29, 2-(3-(2′-amino-1′-methyl-5′-oxo-2-phenyl-1′,5′-dihydrospiro[chroman-4,4′-imidazole]-6-yl)phenyl)acetonitrile] | 1000 to 5000 nM |
| 5000 to 10000 nM | CC(C)=C[C@H](CCO)[C@@H]1C[C@@]2(N=C(N)N(C)O2)c2cc(-c3cc(F)cc(F)c3F)ccc2O1 [Compound 441] | – |
| 500 to 1000 nM | CN1O[C@@]2(C[C@]3(CCOC3)Oc3ccc(-c4cccc(C#N)c4)cc32)N=C1N [Compound 113b] | – |
| 10000 to 50000 nM | CN1C(=O)[C@@]2(C[C@@]3(CCCOC3)Oc3ccc(-c4ccc5cn[nH]c5c4)cc32)N=C1N [Compound 457] | – |
| 1000 to 5000 nM | CC1CCC2(CO1)CC1(N=C(N)N(C)O1)c1cc(-c3cccc(C#N)c3)ccc1O2 (stereo not shown) [Compound 387, 3-(2″H-3″-amino-2″-methyl-spiro(spiro(chroman-2,3′-[2,4,5,6-tetrahydro-6-methyl-pyran])-4,5″-[1,2,4]oxadiazole)-6-yl)benzonitrile] | – |
| 1000 to 5000 nM | CN1C(=O)C2(CC3(CCCC(C(F)(F)F)C3)Oc3ccc(-c4cccc(C#N)c4)cc32)N=C1N (stereo not shown) [Compound 81] | – |
| 100 to 500 nM | CN1OC2(CC(C3CCOCC3)Oc3ccc(-c4cccc(C#N)c4)cc32)N=C1N (stereo not shown) [Compound 88, 3-(3′-amino-2′-methyl-2-(tetrahydro-2H-pyran-4-yl)-2′H-spiro[chroman-4,5′-[1,2,4]-oxadiazole]-6-yl)benzonitrile] | – |
| 100 to 500 nM | N#Cc1cccc(-c2ccc3c(c2)C2(CC(c4ccccc4)O3)N=C(N)N(CCC3CC3)C2=O)c1 (stereo not shown) [Compound 10] | – |
| 1000 to 5000 nM | CN1C(=O)[C@@]2(C[C@]3(CCCOC3)Oc3ccc(-c4cccc(C#N)n4)cc32)N=C1N [Compound 410] | – |

| IC50 [1] | SMILES | IC50 |
| --- | --- | --- |
| 5000 to 10000 nM | CN1OC2(CC3(CCCC4CCCCC43)Oc3ccc(-c4cccc(C#N)c4)cc32)N=C1N (stereo not shown) [Compound 443] | – |
| 1000 to 5000 nM | CN1OC2(N=C1N)c1ccccc1OCC2CCc1cccc(C#N)c1 (stereo not shown) [Compound 399] | – |
| 1000 to 5000 nM | CC(=O)c1cccc(-c2ccc3c(c2)[C@]2(C[C@@]4(CCCOC4)O3)N=C(N)N(C)C2=O)c1 [Compound 427] | – |
| 1000 to 5000 nM | CN1OC2(CC3(CCCOC3)Oc3ccc(C#CC4CC4)cc32)N=C1N (stereo not shown) [Compound 407, 2″-methyl-6-(cyclopropylethynyl)-2″H-spiro[spiro[chroman-2,1′-(3-oxacyclohexane)]-4,5′-[1,2,4]oxadiazol]-3″-amine] | – |
| 500 to 1000 nM | CN1OC2(CC(C3CCOCC3)Oc3ccc(-c4cc(Cl)cc(C#N)c4)cc32)N=C1N (stereo not shown) [Compound 350] | – |
| – | CN1C(=O)C2(CC(c3ccccc3)Oc3ccc(-c4ccccc4)cc32)N=C1N (stereo not shown) [Compound 27, 2′-amino-1′-methyl-2,6-diphenylspiro-[chroman-4,4′-imidazol]-5′(1′H)-one] | 1000 to 5000 nM |
| 1000 to 5000 nM | CN1OC2(CC3(CCCC(c4ccccc4)C3)Oc3ccc(-c4cccc(C#N)c4)cc32)N=C1N (stereo not shown) [Compound 415] | – |
| 1000 to 5000 nM | CC(C)=CC(CCO)C1CC2(N=C(N)N(C)O2)c2cc(-c3cc(C#N)ccc3C)ccc2O1 (stereo not shown) [Compound 425] | – |
| 100 to 500 nM | CN1C(=O)C2(CC(C3CCOC(C)(C)C3)Oc3ccc(-c4cc(F)ccc4F)cc32)N=C1N (stereo not shown) [Compound 300] | – |
| 5000 to 10000 nM | CN1O[C@@]2(C[C@@]3(CCC(C(C)(C)C)C3)Oc3ccc(-c4cccc(C#N)c4)cc32)N=C1N (stereo partly shown) [Compound 127a] | – |
| 1000 to 5000 nM | CN1C(=O)[C@@]2(C[C@]3(CCCOC3)Oc3ccc(-c4cccc(Cl)n4)cc32)N=C1N [Compound 426] | – |
| 5000 to 10000 nM | CN1OC2(CC(c3ccccn3)Oc3ccc(-c4cccc(C#N)c4)cc32)N=C1N (stereo not shown) [Compound 106, 3-(3′-amino-2′-methyl-2-(pyridin-2-yl)-2′H-spiro[chroman-4,5′-[1,2,4]oxadiazole]-6-yl)benzonitrile] | – |
| 10000 to 50000 nM | CN1OC2(CC3(CCc4ccccc4CC3)Oc3ccc(-c4cccc(C#N)c4)cc32)N=C1N (stereo not shown) [Compound 451] | – |
| – | CN(C)C(=O)c1ccc(-c2ccc3c(c2)C2(CC(c4ccccc4)O3)N=C(N)N(C)C2=O)cc1 (stereo not shown) [Compound 68, 4-(2′-amino-1′-methyl-5′-oxo-2-phenyl-1′,5′-dihydrospiro[chroman-4,4′-imidazole]-6-yl)-N,N-dimethylbenzamide] | 10000 to 50000 nM |
| 5000 to 10000 nM | CN1C(=O)[C@@]2(C[C@@]3(CCCOC3)Oc3ccc(-c4cccc(Cl)n4)cc32)N=C1N [Compound 447] | – |
| – | CN1C(=O)C2(CC(c3ccccc3)Oc3ccc(-c4ccc(CO)cc4)cc32)N=C1N (stereo not shown) [Compound 26, 2′-amino-6-(4-(hydroxymethyl)phenyl)-1′-methyl-2-phenylspiro[chroman-4,4′-imidazol]-5′(1′H)-one] | 1000 to 5000 nM |
| 1000 to 5000 nM | Cc1ccc(-c2ccc3c(c2)C2(CC4(CCCOC4)O3)N=C(N)N(C)C2=O)s1 (stereo not shown) [Compound 414] | – |
| 1000 to 5000 nM | CN1C(=O)C2(CC3(CCCOC3)Oc3ccc(-c4cc(CO)ccc4F)cc32)N=C1N (stereo not shown) [Compound 395] | – |
| – | CN1C(=O)C2(CC(c3ccccc3)Oc3ccc(-c4ccc(S(C)(=O)=O)cc4)cc32)N=C1N (stereo not shown) [Compound 49, 2′-amino-1′-methyl-6-(4-(methylsulfonyl)phenyl)-2-phenylspir-o[chroman-4,4′-imidazol]-5′(1′H)-one] | 5000 to 10000 nM |
| 1000 to 5000 nM | CN1OC2(CC3(CCN(c4ccccc4)CC3)Oc3ccc(-c4cccc(C#N)c4)cc32)N=C1N (stereo not shown) [Compound 390] | – |
| 5000 to 10000 nM | CC(C)=CC(CCO)[C@H]1C[C@@]2(N=C(N)N(C)O2)c2cc(-c3cccc(C(F)(F)F)c3)ccc2O1 (stereo partly shown) [Compound 442] | – |
| 100 to 500 nM | COc1cc(F)cc(-c2ccc3c(c2)[C@]2(C[C@@]4(CCCOC4)O3)N=C(N)N(C)C2=O)c1 [Compound 328] | – |
| 100 to 500 nM | COc1ccc(OC)c(-c2ccc3c(c2)[C@]2(C[C@]4(CCCOC4)O3)N=C(N)N(C)C2=O)c1 [Compound 307] | – |
| 100 to 500 nM | CC1CCC2(C1)CC1(N=C(N)N(C)C1=O)c1cc(-c3cccc(C#N)c3)ccc1O2 (stereo not shown) [Compound 74] | – |
| 10000 to 50000 nM | CCCN1C(=O)[C@@]2(C[C@H](c3ccccc3)Oc3ccc(Br)cc32)N=C1N [Compound 57a, (2R,4S)-2′-amino-6-bromo-2-phenyl-1′-propylspiro[chroman-4,4′-imidazol]-5′(1′H)-one] | – |
| 100 to 500 nM | CC1CC(C2CC3(N=C(N)N(C)O3)c3cc(-c4cccc(C#N)c4)ccc3O2)CC(C)O1 (stereo not shown) [Compound 319] | – |
